Source: patent US8383637B2, “2-amino-quinazoline derivatives useful as inhibitors of β-secretase (BACE)” (Jansssen Pharmaceutica N.V., priority 2004, dated 2013)

Molecular target: T1, β-secretase(BACE) (Homo sapiens, UniProt P56817)
T1 construct: purchased Panvera
Assay: BACE FS1% Inhibition Assay
Type: biochemical
Settings: FS1 substrate
Summary of the method: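 Percent inhibition at each tested concentration, referenced to enzyme-free blank and vehicle-only positive control. Reaction: compound and BACE (4 μg/mL working stock) mixed 20 min at room temperature before FS1 substrate (300 μg/mL working stock), then 1 h at room temperature.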

T1 sequence (P56817 46-501): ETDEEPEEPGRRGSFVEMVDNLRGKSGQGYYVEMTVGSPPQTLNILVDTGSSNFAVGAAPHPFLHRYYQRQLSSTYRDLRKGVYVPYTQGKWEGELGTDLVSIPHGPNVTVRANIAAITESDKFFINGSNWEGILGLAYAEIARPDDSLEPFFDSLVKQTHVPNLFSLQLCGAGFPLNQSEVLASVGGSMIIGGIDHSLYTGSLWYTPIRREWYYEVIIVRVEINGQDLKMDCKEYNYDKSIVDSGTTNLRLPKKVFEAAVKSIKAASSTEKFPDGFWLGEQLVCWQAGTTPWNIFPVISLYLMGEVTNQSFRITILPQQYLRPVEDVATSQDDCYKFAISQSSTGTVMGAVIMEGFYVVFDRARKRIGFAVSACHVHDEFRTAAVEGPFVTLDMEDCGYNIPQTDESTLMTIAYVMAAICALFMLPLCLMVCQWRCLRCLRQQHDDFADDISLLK

% Inhibition (FS) 0.3 μM (0.3 μM test compound) [%] | % Inhibition (FS) 1 μM (1 μM test compound) [%] | % Inhibition (FS) 3 μM (3 μM test compound) [%] | % Inhibition (FS) (0.3 μM test compound) [%] | % Inhibition (FS) (1 μM test compound) [%] | % Inhibition (FS) (3 μM test compound) [%] | SMILES
31 | 63 | 91 | – | – | – | CCCC(=O)NCCN1Cc2cc(-c3ccccc3Cl)ccc2N=C1N [Compound 652]
46 | 82 | 101 | – | – | – | CC(C)(C)C(=O)NCCN1Cc2cc(-c3ccccc3Cl)ccc2N=C1N [Compound 653]
45 | 79 | 104 | – | – | – | CCCCC(CC)C(=O)NCCN1Cc2cc(-c3ccccc3Cl)ccc2N=C1N (stereo not drawn) [Compound 655]
56 | 87 | 104 | – | – | – | Cc1ccccc1-c1ccc2c(c1)CN(CCNC(=O)C1CCC1)C(N)=N2 [Compound 656]
<30 | 62 | 100 | – | – | – | Cc1ccccc1-c1ccc2c(c1)CN(CCNC(=O)C13CC4CC(CC(C4)C1)C3)C(N)=N2 [Compound 658]
43 | 69 | 100 | – | – | – | CCCC(=O)NCCN1Cc2cc(-c3ccccc3C)ccc2N=C1N [Compound 659]
63 | 86 | 105 | – | – | – | Cc1ccccc1-c1ccc2c(c1)CN(CCNC(=O)C(C)(C)C)C(N)=N2 [Compound 660]
– | – | – | 68 | 98 | 106 | Cc1ccccc1-c1ccc2c(c1)CN(CCNC(=O)CCC(C)C)C(N)=N2 [Compound 661]
– | – | – | 66 | 97 | 109 | CCCCC(CC)C(=O)NCCN1Cc2cc(-c3ccccc3C)ccc2N=C1N (stereo not drawn) [Compound 662]
– | – | – | <30 | <30 | <30 | NC1=Nc2ccc(-c3ccc4ccccc4c3)cc2CN1CCNC(=O)C1CCC1 [Compound 663]
– | – | – | <30 | <30 | <30 | NC1=Nc2ccc(-c3ccc4ccccc4c3)cc2CN1CCNC(=O)C1CCCC1 [Compound 664]
– | – | – | 35 | <30 | <30 | NC1=Nc2ccc(-c3ccc4ccccc4c3)cc2CN1CCNC(=O)C12CC3CC(CC(C3)C1)C2 [Compound 665]
– | – | – | 37 | <30 | <30 | CCCC(=O)NCCN1Cc2cc(-c3ccc4ccccc4c3)ccc2N=C1N [Compound 666]
– | – | – | 33 | <30 | <30 | CC(C)(C)C(=O)NCCN1Cc2cc(-c3ccc4ccccc4c3)ccc2N=C1N [Compound 667]
– | – | – | <30 | <30 | <30 | CC(C)CCC(=O)NCCN1Cc2cc(-c3ccc4ccccc4c3)ccc2N=C1N [Compound 668]
– | – | – | <30 | <30 | 32 | CCCCC(CC)C(=O)NCCN1Cc2cc(-c3ccc4ccccc4c3)ccc2N=C1N (stereo not drawn) [Compound 669]
– | – | – | <30 | <30 | 44 | NC1=Nc2ccc(-c3cnc4ccccc4c3)cc2CN1CCNC(=O)C1CCC1 [Compound 670]
– | – | – | <30 | 30 | <30 | NC1=Nc2ccc(-c3cnc4ccccc4c3)cc2CN1CCNC(=O)C1CCCC1 [Compound 671]
– | – | – | <30 | <30 | <30 | NC1=Nc2ccc(-c3cnc4ccccc4c3)cc2CN1CCNC(=O)C12CC3CC(CC(C3)C1)C2 [Compound 672]
– | – | – | 34 | <30 | <30 | CCCC(=O)NCCN1Cc2cc(-c3cnc4ccccc4c3)ccc2N=C1N [Compound 673]
– | – | – | 36 | <30 | 41 | CC(C)(C)C(=O)NCCN1Cc2cc(-c3cnc4ccccc4c3)ccc2N=C1N [Compound 674]
– | – | – | 35 | <30 | <30 | CC(C)CCC(=O)NCCN1Cc2cc(-c3cnc4ccccc4c3)ccc2N=C1N [Compound 675]
– | – | – | 33 | <30 | 44 | CCCCC(CC)C(=O)NCCN1Cc2cc(-c3cnc4ccccc4c3)ccc2N=C1N (stereo not drawn) [Compound 676]
– | – | – | 51 | 88 | 99 | Cc1ccccc1-c1ccc2c(c1)CN(CCNC(=O)CCC(F)(F)F)C(N)=N2 [Compound 678]
– | – | – | 78 | 99 | 103 | Cc1ccccc1-c1ccc2c(c1)CN(CCNC(=O)CC(C)C(F)(F)F)C(N)=N2 (stereo not drawn) [Compound 679]
– | – | – | 42 | 75 | 90 | NC1=Nc2ccc(-c3ccccc3F)cc2CN1CCNC(=O)CCC(F)(F)F [Compound 680]

% Inhibition (FS) 0.3 μM (0.3 μM test compound) [%] | % Inhibition (FS) 1 μM (1 μM test compound) [%] | % Inhibition (FS) 3 μM (3 μM test compound) [%] | % Inhibition (FS) (0.3 μM test compound) [%] | % Inhibition (FS) (1 μM test compound) [%] | % Inhibition (FS) (3 μM test compound) [%] | SMILES
– | – | – | 67 | 100 | 103 | CC(CC(=O)NCCN1Cc2cc(-c3ccccc3F)ccc2N=C1N)C(F)(F)F (stereo not drawn) [Compound 681]
– | – | – | 39 | 77 | 97 | NC1=Nc2ccc(-c3ccccc3Cl)cc2CN1CCNC(=O)CCC(F)(F)F [Compound 682]
– | – | – | 64 | 86 | 102 | CC(CC(=O)NCCN1Cc2cc(-c3ccccc3Cl)ccc2N=C1N)C(F)(F)F (stereo not drawn) [Compound 683]
– | – | – | 33 | 38 | 78 | NC1=Nc2ccc(-c3ccccc3)cc2CN1CCNC(=O)CCC(F)(F)F [Compound 684]
– | – | – | 50 | 90 | 101 | CC(CC(=O)NCCN1Cc2cc(-c3ccccc3)ccc2N=C1N)C(F)(F)F (stereo not drawn) [Compound 685]
– | – | – | <30 | 73 | 80 | NC1=Nc2ccc(-c3ccc4ccccc4c3)cc2CN1CCNC(=O)CCC(F)(F)F [Compound 686]
– | – | – | <30 | 50 | 87 | NC1=Nc2ccc(-c3ccccc3F)cc2CN1CCNC(=O)C1CCOCC1 [Compound 687]
– | – | – | <30 | 36 | 81 | NC1=Nc2ccc(-c3ccccc3F)cc2CN1CCNC(=O)C1CCC(C(F)(F)F)CC1 (stereo not drawn) [Compound 688]
– | – | – | 33 | 82 | 102 | NC1=Nc2ccc(-c3ccccc3Cl)cc2CN1CCNC(=O)C1CCOCC1 [Compound 689]
– | – | – | <30 | <30 | 52 | NC1=Nc2ccc(-c3ccccc3Cl)cc2CN1CCNC(=O)C1CCC(C(F)(F)F)CC1 (stereo not drawn) [Compound 690]
– | – | – | <30 | <30 | 51 | CC(=O)N1CCC(C(=O)NCCN2Cc3cc(-c4ccccc4Cl)ccc3N=C2N)CC1 [Compound 691]
– | – | – | <30 | <30 | 84 | Cc1ccccc1-c1ccc2c(c1)CN(CCNC(=O)C1CCC(C(F)(F)F)CC1)C(N)=N2 (stereo not drawn) [Compound 694]
– | – | – | <30 | <30 | 54 | CC(=O)N1CCC(C(=O)NCCN2Cc3cc(-c4ccccc4C)ccc3N=C2N)CC1 [Compound 695]
– | – | – | <30 | 72 | 104 | COC1CCCC(C(=O)NCCN2Cc3cc(-c4ccccc4C)ccc3N=C2N)C1 (stereo not drawn) [Compound 696]
– | – | – | <30 | <30 | 63 | COc1ccccc1-c1ccc2c(c1)CN(CCNC(=O)C1CCOCC1)C(N)=N2 [Compound 697]
– | – | – | <30 | <30 | 64 | COc1ccccc1-c1ccc2c(c1)CN(CCNC(=O)C1CCC(C(F)(F)F)CC1)C(N)=N2 (stereo not drawn) [Compound 698]
– | – | – | 31 | 64 | 93 | COc1cccc(F)c1-c1ccc2c(c1)CN(CCNC(=O)C1CCOCC1)C(N)=N2 [Compound 699]
– | – | – | <30 | 36 | 85 | COc1cccc(F)c1-c1ccc2c(c1)CN(CCNC(=O)C1CCC(C(F)(F)F)CC1)C(N)=N2 (stereo not drawn) [Compound 700]
– | – | – | <30 | <30 | 54 | NC1=Nc2ccc(-c3ccccc3)cc2CN1CCNC(=O)C1CCC(C(F)(F)F)CC1 (stereo not drawn) [Compound 701]
– | – | – | <30 | <30 | <30 | CC(=O)N1CCC(C(=O)NCCN2Cc3cc(-c4ccccc4)ccc3N=C2N)CC1 [Compound 702]
– | – | – | <30 | 46 | 83 | COC1CCCC(C(=O)NCCN2Cc3cc(-c4ccccc4)ccc3N=C2N)C1 (stereo not drawn) [Compound 703]
– | – | – | <30 | <30 | <30 | NC1=Nc2ccc(C3=CCCCC3)cc2CN1CCNC(=O)C1CCC(C(F)(F)F)CC1 (stereo not drawn) [Compound 704]
– | – | – | <30 | <30 | <30 | CC(=O)N1CCC(C(=O)NCCN2Cc3cc(C4=CCCCC4)ccc3N=C2N)CC1 [Compound 705]
– | – | – | <30 | <30 | <30 | COC1CCCC(C(=O)NCCN2Cc3cc(C4=CCCC4)ccc3N=C2N)C1 (stereo not drawn) [Compound 706]
– | – | – | <30 | <30 | <30 | NC1=Nc2ccc(C3=CCCC3)cc2CN1CCNC(=O)C1CCC(C(F)(F)F)CC1 (stereo not drawn) [Compound 707]
